Here are results for seven compounds from patent US7442240B2, “Alkoxylpropylisothiazolinone and preparation method and use thereof” (Ocean University of China, priority 2004, dated 2008).

The test system of experiment [1] is heterotrophic bacteria. The experiment can be described thus: sterilization test in industrial cooling (circulating) water system. Particulars: for control and sterilization of microorganism in industry cooling water (in words): industrial cooling water; for the amount of the heterotrophic bacteria, virtual result / the rate of sterilization: 50 mg/L medicament. From the text: The compound of the present invention may be used to control and sterilize alga, fungi and bacteria in the industrial cooling water system. First, chlorine was stopped adding into the circulating water system for 3 days before administration. The total amount of the heterotrophic bacteria in the circulating water was raised, and then the 4,5-dichloro-2-methoxyethoxypropyl-4-isothiazolin-3-one was thrown in, while the discharge of the water was stopped. The amount of the heterotrophic bacteria in water and the sterilization rate was measured at 4 hours, 12 hours, 24 hours, 36 hours after the medicament was added.

The subject of experiment [2] is coliform bacteria. In words: lowest bacteriostasis concentration, tube double dilution method. It is filed as cell-based. Particulars: 10^7 cfu/ml, 24 hours, 37° C. As for the experimental part: (§1) The lowest bacteriostasis concentration of the six kinds of the alkoxylpropylisothiazolinone of the present invention is measured through the tube double dilution method. In a Φ18×180 mm tube, 5 ml aseptic culture medium was added, then 50 μl bacteria suspended liquid of coliform was injected to prepare culture solution of beef extract peptone having bacteria concentration of 10^7 cfu/ml, then 50 μl tetrahydrofuran solution containing 4,5-dichloro-2-isopropoxypropyl-4-isothiazolin-3-one with the concentration of 2 μg/ml, 4 μg/ml, 8 μg/ml, 16 μg/ml, 32 μg/ml were added respectively. After cultured for 24 hours under a constant temperature of 37° C., the lowest bacteriostasis concentration of 4,5-dichloro-2-isopropoxypropyl-4-isothiazolin-3-one against coliform bacteria was measured. The result is 8 μg/ml (the cfu is a colong forming unit, 1 cfu refer to one single colong formed on the agar plate after being cultured).

For experiment [3], the system named is saccharomyces cerevisiae. The description is as above. Particulars: 24 hours, 37° C. It is filed as cell-based. As for the experimental part: as §1
(§2) When the coliform bacteria of the present invention is replaced with saccharomyces cerevisiae or staphylococcus aureus, and the 4,5-dichloro-2-isopropoxypropyl-4-isothiazolin-3-one is replaced with 4,5-dichloro-2-methoxy-propyl-4-isothiazolin-3-one, 4,5-dichloro-2-ethoxypropyl-4-isothiazolin-3-one, 4,5-dichloro-2-butoxypropyl-4-isothiazolin-3-one, 4,5-dichloro-2-methoxyethoxypropyl-4-isothiazolin-3-one, or 4,5-dichloro-2-chlorophenoxyethoxypropyl-4-isothiazolin-3-one, a considerable experimental results are also received, which are shown in the following table.

Experiment [4] deals with staphylococcus aureus. The experiment is described as above. It is filed as cell-based. Particulars: 24 hours, 37° C. The method, then:
as §1, §2

Experiment [5] concerns leaf spot of beet. In words: drug action and field test against leaf spot of beet. It is filed as in vivo. An excerpt:
Otherwise, it has also a good prevent function to the apple ring rot, tomato gray mold and cotton soreshin. For example, when the 4,5-dichloro-2-isopropoxypropyl-4-isothiazolin-3-one is used as bactericide, it is merely required 39 g pure medicament per mu ( 1/15 of a hectare) with the concentration of 250 ppm to control the leaf spot of bee, and the efficiency of the prevention and cure is up to 75.0%.

On to `CCCCOCCCn1sc(Cl)c(Cl)c1=O`, for which, in experiment [1], the “control and sterilization of microorganism in industry cooling water (in words)” value (“control and sterilization” for short) is “controlled and sterilized effectively”. For the same compound, the lowest bacteriostasis concentration in experiment [2] was 4 µg/mL; in experiment [3], 4 µg/mL; in experiment [4], 8 µg/mL.

Regarding `COCCCn1sc(Cl)c(Cl)c1=O`, in experiment [1], the “control and sterilization” value is “controlled and sterilized effectively”. Moreover, the lowest bacteriostasis concentration stood at 4 µg/mL in experiment [2], 16 µg/mL in experiment [3] and 32 µg/mL in experiment [4].

Take `O=c1c(Cl)c(Cl)sn1CCCOCCOc1ccc(Cl)cc1` [4,5-dichloro-2-chlorophenoxyethoxypropyl-4-isothiazolin-3-one]: the figures for the lowest bacteriostasis concentration in experiment [2], in experiment [3] and in experiment [4] were 8 µg/mL, 8 µg/mL and 16 µg/mL, respectively.

As to `COC(COC(C)Cn1sc(Cl)c(Cl)c1=O)OC` (centres unmarked) [4,5-dichloro-2-dimethoxyethoxypropyl-4-isothiazolin-3-one], the “effect of the prevention and cure (in words)” value (shortened to “effect”) in experiment [5] was “considerable effect of the prevention and cure”.

For `CCOCCCn1sc(Cl)c(Cl)c1=O` [4,5-dichloro-2-ethoxypropyl-4-isothiazolin-3-one], the “effect” value in experiment [5] is “considerable effect of the prevention and cure”. Moreover, the “control and sterilization” value in experiment [1] is “controlled and sterilized effectively”. Besides, the lowest bacteriostasis concentration worked out at 4 µg/mL in experiment [2], 8 µg/mL in experiment [3] and 16 µg/mL in experiment [4].

For the compound `CC(C)OCCCn1sc(Cl)c(Cl)c1=O` [4,5-dichloro-2-isopropoxypropyl-4-isothiazolin-3-one], the “effect” value in experiment [5] was “considerable effect of the prevention and cure”. Further, in experiment [5] (39 g pure medicament per mu, 250 ppm), the “efficiency of the prevention and cure” value is “up to 75.0%”. Moreover, in experiment [1], the “control and sterilization” value is “controlled and sterilized effectively”. Besides, the lowest bacteriostasis concentration in experiment [2] stood at 8 µg/mL; in experiment [3], 8 µg/mL; in experiment [4], 16 µg/mL.

Consider `COCCOCCCn1sc(Cl)c(Cl)c1=O` [4,5-dichloro-2-methoxyethoxypropyl-4-isothiazolin-3-one], for which, in experiment [5], the “effect” value is “considerable effect of the prevention and cure”. Moreover, the “the amount of the heterotrophic bacteria, virtual result” value in experiment [1] (4 h after addition) is 2.0 × 10^5 number/mL; in experiment [1] (12 h after addition), 4.0 × 10^4 number/mL; in experiment [1] (24 h after addition), 3.0 × 10^4 number/mL; in experiment [1] (36 h after addition), 3.3 × 10^4 number/mL. In addition, the “the rate of sterilization” value turned out to be 99.33% in experiment [1] (4 h after addition), 99.87% in experiment [1] (12 h after addition), 99.90% in experiment [1] (24 h after addition) and 99.89% in experiment [1] (36 h after addition). The lowest bacteriostasis concentration in experiment [2], in experiment [3] and in experiment [4] was 16 µg/mL in each case.
